This note sets out measurements from patent US20240059728A1, “NOVEL GALACTOSIDE INHIBITOR OF GALECTINS” (GALECTO BIOTECH AB, priority 2021, published 2024).

One assay deals with Galectin-3 (Homo sapiens (Human), UniProt P17931). The experiment in a line: fluorescence anisotropy assay, galectin-3. It counts as binding. The conditions noted are these: inhibition of the interaction between galectin and a fluorescein tagged saccharide probe. On the procedure:
(§1) The affinity of Example 1-14 for galectins were determined by a fluorescence anisotropy assay where the compound was used as an inhibitor of the interaction between galectin and a fluorescein tagged saccharide probe as described Sörme, P., Kahl-Knutsson, B., Huflejt, M., Nilsson, U. J., and Leffler H. (2004) Fluorescence polarization as an analytical tool to evaluate galectin-ligand interactions. Anal. Biochem. 334: 36-47, (Sarme et al., 2004) and Monovalent interactions of Galectin-1 By Salomonsson, Emma; Larumbe, Amaia; Tejler, Johan; Tullberg, Erik; Rydberg, Hanna; Sundin, Anders; Khabut, Areej; Frejd, Torbjorn; Lobsanov, Yuri D.; Rini, James M.; et al, From Biochemistry (2010), 49(44), 9518-9532, (Salomonsson et al., 2010).

A further assay has as its target Galectin-1 (Homo sapiens (Human), UniProt P09382). The experiment in a line: fluorescence anisotropy assay, galectin-1. Format: binding. The settings on record: inhibition of the interaction between galectin and a fluorescein tagged saccharide probe. On the procedure: as §1
(In fluorescence polarisation assays a small probe gives low polarisation when free and higher when bound to something large.)

Sequence of Galectin-3 (P17931 whole entry): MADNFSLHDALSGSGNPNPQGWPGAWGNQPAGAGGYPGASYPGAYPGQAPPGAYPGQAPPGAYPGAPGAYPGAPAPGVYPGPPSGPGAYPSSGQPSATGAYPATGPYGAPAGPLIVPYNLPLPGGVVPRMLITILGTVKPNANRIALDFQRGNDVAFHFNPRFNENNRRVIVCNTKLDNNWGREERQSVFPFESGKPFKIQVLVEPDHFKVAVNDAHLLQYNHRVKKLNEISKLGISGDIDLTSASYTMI
Sequence of Galectin-1 (P09382 whole entry): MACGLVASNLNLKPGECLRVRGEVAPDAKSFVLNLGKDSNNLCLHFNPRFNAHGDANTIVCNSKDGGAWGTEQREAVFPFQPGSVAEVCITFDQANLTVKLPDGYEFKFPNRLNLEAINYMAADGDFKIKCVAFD

In the case of `OCC1O[C@@H](S[C@@H]2O[C@H](CO)C(O)C(n3cc(-c4csc(O)n4)nn3)[C@H]2O)C(O)[C@@H](n2cc(-c3cc(F)c(F)c(F)c3)nn2)[C@H]1O` (stereo partly drawn) [Example 1, 3,3′-Dideoxy-3-[4-(3,4,5-trifluorophenyl)-1H-1,2,3-triazol-1-yl]-3′-[4-(2-hydroxythiazol-4-yl)-1H-1,2,3-triazol-1-yl]-1,1′-sulfanediyl-di-β-D-galactopyranoside], the dissociation constant Kd (as a rule, a measure of binding affinity in units of concentration) on Galectin-3 came out at 0.4 nM; at Galectin-1, 3 nM.

Regarding `OCC1O[C@@H](S[C@@H]2O[C@H](CO)C(O)C(n3cc(-c4csc(O)n4)nn3)[C@H]2O)C(O)[C@@H](n2cc(-c3cc(F)c(Cl)c(F)c3)nn2)[C@H]1O` (stereo partly drawn) [Example 2, 3-[4-(4-Chloro-3,5-difluorophenyl)-1H-1,2,3-triazol-1-yl]-3,3′-dideoxy-3′-[4-(2-hydroxythiazol-4-yl)-1H-1,2,3-triazol-1-yl]-1,1′-sulfanediyl-di-β-D-galactopyranoside], the results for the Kd at Galectin-3 and on Galectin-1 were 0.3 nM and 4 nM, respectively.

With `Nc1nc(-c2cn(C3C(O)[C@@H](CO)O[C@@H](S[C@@H]4OC(CO)[C@H](O)[C@H](n5cc(-c6cc(F)c(Cl)c(F)c6)nn5)C4O)[C@@H]3O)nn2)cs1` (stereo partly drawn) [Example 3, 3′-[4-(2-Aminothiazol-4-yl)-1H-1,2,3-triazol-1-yl]-3-[4-(4-chloro-3,5-difluorophenyl)-1H-1,2,3-triazol-1-yl]-3,3′-dideoxy-1,1′-sulfanediyl-di-β-D-galactopyranoside], the Kd on Galectin-3 was 1 nM; on Galectin-1, 9 nM.

Take `OCC1O[C@@H](S[C@@H]2O[C@H](CO)C(O)C(n3cc(-c4ccc(Cl)c(F)c4F)nn3)[C@H]2O)C(O)[C@@H](n2cc(-c3ccc(Cl)c(F)c3F)nn2)[C@H]1O` (stereo partly drawn) [Example 14, 1,1′-Sulfanediyl-bis-{3-[4-(4-chloro-2,3-difluorophenyl)-1H-1,2,3-triazol-1-yl]-3-deoxy-β-D-galactopyranoside}]: the Kd stood at 12 nM at Galectin-3 and 450 nM on Galectin-1.
